Drawing on ChEMBL document CHEMBL3507680, “University of Dundee, Gates Library screen for HepG2 cell viability”, this text covers cytotoxicity for 74 molecules.

This series can be described thus: Human HepG2 cell viability assay in 384 well format. Type of series: toxicity, cell-based. On the set-up: dose 125 nL, time 70.5 hour; cytotoxicity at 70.5 h: concentration not given beside the values. As to conditions: HepG2 cells, read-out: Inhibition.
`CCNC(=O)CNS(=O)(=O)Cc1cc(-c2ccccc2)no1`: the cytotoxicity at 70.5 h was determined as 2.55%.

Take `COc1ccc(CNC(=O)N2CCCN(CC3CCCCC3)CC2)cn1`: the cytotoxicity at 70.5 h was -5.17%.

For `COCCOc1ccc(NC(=O)N(C(C)C)C2CC2)cn1`, the cytotoxicity at 70.5 h was -3.25%.

Consider `CN(Cc1cc(Br)cn1C)C(=O)c1cc(Cl)ccn1`, for which the cytotoxicity at 70.5 h is 30.9%.

In the case of `CC(C(=O)NS(=O)(=O)Cc1cc(-c2ccccc2)no1)C1CC1` (centres undefined), the cytotoxicity at 70.5 h was -1.89%.

With `CCNC(=O)CCC(=O)NC(C)Cc1ccccc1Br` (centres undefined), the cytotoxicity at 70.5 h stood at 4.19%.

In the case of `Cc1noc(NCc2ccc(F)cc2)n1`, the cytotoxicity at 70.5 h is -1.48%.

As for `CN1CCN(CCNC(=O)C(OC2CCCC2)c2ccccc2)CC1` (centres undefined), the cytotoxicity at 70.5 h stood at 5.3%.

As for `COCCOc1ccc(NC(=O)N(CCCO)CC(C)(C)C)cn1`, the cytotoxicity at 70.5 h amounted to 21.2%.

Regarding `CCCn1[nH]cc/c1=N\C(=O)CN1CCCC1Cn1cccn1` (centres undefined), the cytotoxicity at 70.5 h was -6.25%.

Turning to `Cc1nc2n(n1)CC(NCc1nnc(C(C)(C)C)o1)CC2` (centres undefined), the cytotoxicity at 70.5 h is -6.83%.

With `CC(Cn1ccnc1)NC(=O)N(C)Cc1ccco1` (centres undefined), the cytotoxicity at 70.5 h is -2.84%.

For `CCc1nnc(C2Cc3ccccc3CN2Cc2cc(C)no2)o1` (centres undefined), the cytotoxicity at 70.5 h is -4.33%.

Take `CCN(CC)c1ccc(CNC(=O)c2cnccn2)cn1`: the cytotoxicity at 70.5 h is 18%.

Take `CCN(CC)c1ccc(CNC(=O)c2ccc(=O)[nH]n2)cn1`: the cytotoxicity at 70.5 h is -13.1%.

Turning to `O=C(c1cc(C2CC2)[nH]n1)N1CCN(c2nccs2)CC1`, the cytotoxicity at 70.5 h was -11.6%.

`O=C(c1ccoc1)N1CCC(NCc2cccnc2)CC1`: the cytotoxicity at 70.5 h was 4.06%.

As for `CCS(=O)(=O)N1CCC(Nc2ccc(C#N)cc2F)CC1`, the cytotoxicity at 70.5 h was -10.9%.

Consider `CC(NC(=O)CN1C=Nc2ccccc2S1(=O)=O)c1ccccc1` (centres undefined), for which the cytotoxicity at 70.5 h was -9.29%.

As for `Cc1ccc(CNC(=O)N2CCN(S(C)(=O)=O)CC2)n1C`, the cytotoxicity at 70.5 h is -6.21%.

On to `Cc1nc(S(=O)(=O)NCCC(=O)NCc2ccsc2)cn1C`, for which the cytotoxicity at 70.5 h is -6.68%.

Turning to `Fc1ccccc1CN1CCC(c2n[nH]c(C3CC3)n2)CC1`, the cytotoxicity at 70.5 h is -5.65%.

Regarding `c1cc(CCN2CCC(c3n[nH]c(C4CC4)n3)CC2)ccn1`, the cytotoxicity at 70.5 h was determined as 11.7%.

`Cc1ccc(CNC(=O)C2CCN(C(=O)C(C)C)CC2)n1C`: the cytotoxicity at 70.5 h is -9.28%.

For the molecule `CCNc1cc2c(nn1)CCN(C(=O)Cc1ccc3c(c1)CCO3)C2`, the cytotoxicity at 70.5 h is -7.37%.

For the molecule `Cc1nc(-c2cnn(C)c2)sc1C(=O)NCc1ccc(C)n1C`, the cytotoxicity at 70.5 h was -2.82%.

`O=C(Nc1ccccc1F)N(CCO)CCOCC(F)(F)F`: the cytotoxicity at 70.5 h was -4.12%.

Consider `CCOC(=O)c1ccc(CNC(=O)c2ccon2)o1`, for which the cytotoxicity at 70.5 h was found to be 14.2%.

Take `O=C(CCn1cccn1)NS(=O)(=O)N1CCCc2ccccc21`: the cytotoxicity at 70.5 h was -8.67%.

In the case of `CCOC(=O)c1ccc(CNC(=O)c2ccc(Cl)cn2)o1`, the cytotoxicity at 70.5 h was -6.63%.

With `Cn1cc(C2(C)CN(c3ncccc3C#N)CCO2)cn1` (centres undefined), the cytotoxicity at 70.5 h was found to be 3.03%.

Take `Cc1c(NC(C)C(C)C)cccc1C(=O)NCc1ccnn1C` (centres undefined): the cytotoxicity at 70.5 h was found to be 4.31%.

Regarding `Cn1cc(C(=O)N2CCCC2CCc2ccccc2)cn1` (centres undefined), the cytotoxicity at 70.5 h was -9.35%.

Regarding `Cc1nc(-c2cnn(C)c2)sc1C(=O)NCc1cccc(CN(C)C)c1`, the cytotoxicity at 70.5 h was -6.53%.

As to `CCc1cc(NC(=O)N2CCC(Oc3cccnc3)C2)n(C)n1` (centres undefined), the cytotoxicity at 70.5 h is -6.65%.

As for `Cc1nnc(NCC(c2ccco2)N2CCCC2)c(C#N)c1C` (centres undefined), the cytotoxicity at 70.5 h is 3.51%.

As to `O=C(CS(=O)(=O)c1ccccn1)NC1CCCc2ccccc21` (centres undefined), the cytotoxicity at 70.5 h was 1%.

As to `O=C(NCCc1cccs1)NC1CCN(c2ncccn2)CC1`, the cytotoxicity at 70.5 h is -6.98%.

Consider `CS(=O)(=O)NCC1CCCN(C(=O)Nc2ccccc2F)C1` (centres undefined), for which the cytotoxicity at 70.5 h was 1.05%.

On to `CS(=O)(=O)NCC1CCCN(C(=O)Nc2cccc3ccccc23)C1` (centres undefined), for which the cytotoxicity at 70.5 h is -3.21%.

Take `O=C(c1cccc(-n2cnnn2)c1)N1CCC2(CC1)OCCO2`: the cytotoxicity at 70.5 h was -7.02%.

`Cc1nc(CNC(=O)NC2CCN(c3ncccn3)CC2)cs1`: the cytotoxicity at 70.5 h was -6.89%.

In the case of `CCS(=O)(=O)CC(=O)NC(c1ccccc1)C1CCCC1` (centres undefined), the cytotoxicity at 70.5 h was found to be 0.476%.

For the molecule `CCCN(CC(F)F)C(=O)CCc1c(C)nc2cc(O)nn2c1C`, the cytotoxicity at 70.5 h stood at 23.2%.

In the case of `Cc1ccc(-n2cc(C(=O)N3CCn4c(C)nnc4C3)nn2)cc1`, the cytotoxicity at 70.5 h turned out to be 26.8%.

`Cc1cc(C(=O)N2CCC(Nc3cccnc3)CC2)c(C)s1`: the cytotoxicity at 70.5 h came out at 2.17%.

Turning to `COc1cc(C(=O)N2CCC(Nc3cccnc3)CC2)ccc1C`, the cytotoxicity at 70.5 h came out at 6.09%.

With `Cc1nn(C)c(C)c1CNCc1cccnc1N1CCOCC1`, the cytotoxicity at 70.5 h was -7.44%.

Consider `O=C(Cc1ccc2c(c1)CCO2)N1CCCC1Cn1cccn1` (centres undefined), for which the cytotoxicity at 70.5 h was -4.67%.

As for `O=C(CS(=O)(=O)C1CCCC1)NC(c1ccc(F)cc1)C1CC1` (centres undefined), the cytotoxicity at 70.5 h worked out at 1.6%.

On to `N#Cc1ncn(CCC(=O)Nc2ccccc2F)n1`, for which the cytotoxicity at 70.5 h is -0.493%.

As to `Cc1ccc(C(=O)N2CCN(CCCSCC#N)CC2)cc1F`, the cytotoxicity at 70.5 h is -7.64%.

Turning to `COCC(=O)N(C)Cc1ccc(F)c(F)c1`, the cytotoxicity at 70.5 h was 28.3%.

As for `Cc1ccc(CC(=O)N2CCCCC2Cn2cccn2)cn1` (centres undefined), the cytotoxicity at 70.5 h was -0.224%.

Turning to `Cc1cnn(CC2CCCN2C(=O)Cc2ccc3c(c2)CCO3)c1` (centres undefined), the cytotoxicity at 70.5 h is -7.32%.

Consider `Cc1nc(C)c(C(=O)Nc2cccc(CN3CCC(CO)CC3)c2)o1`, for which the cytotoxicity at 70.5 h was 0.852%.

Turning to `CN(CCN1CCOCC1)C(=O)CCc1ccc(C(F)(F)F)cc1`, the cytotoxicity at 70.5 h was determined as 10.6%.

As to `NS(=O)(=O)c1ccc(CNC(=O)c2ccc(Cl)cc2F)cc1`, the cytotoxicity at 70.5 h came out at 5.61%.

As for `O=C(NCc1ccncc1)c1ccc(Cl)cc1F`, the cytotoxicity at 70.5 h amounted to 4.94%.

Take `Cc1ccc(Cl)cc1NC(=O)C1CC(=O)N(Cc2ccccn2)C1` (centres undefined): the cytotoxicity at 70.5 h was 8.15%.

Regarding `O=C(Nc1cccc(C(F)(F)F)c1)C1CC(=O)N(Cc2ccccn2)C1` (centres undefined), the cytotoxicity at 70.5 h was 34.8%.

Consider `O=C(NCc1ccccc1F)NC1CCCN(c2ncccn2)C1` (centres undefined), for which the cytotoxicity at 70.5 h is -4.69%.

Regarding `CN(C)C(=O)Cc1ccc(NC(=O)NC2CC2)cc1`, the cytotoxicity at 70.5 h was -3.59%.

`Cc1nn(CC(=O)N2CCN(c3cnccn3)CC2)c(C)c1Cl`: the cytotoxicity at 70.5 h is -9.18%.

Regarding `Cc1nn(CC(=O)N2CCN(c3ncccn3)CC2)c(C)c1Cl`, the cytotoxicity at 70.5 h amounted to 21.2%.

With `COCCn1ccc(NC(=O)Nc2cccc(C#N)c2)n1`, the cytotoxicity at 70.5 h was -9.39%.

For `CC(C)COC1CCN(C(=O)c2cc3ccccc3c(=O)[nH]2)CC1`, the cytotoxicity at 70.5 h was -4.65%.

With `COCCn1ccc2cc(NC(=O)COC)ccc21`, the cytotoxicity at 70.5 h is -3.46%.

Turning to `Cc1nc(CNC(=O)NCc2ccc(OCC3CC3)nc2)cs1`, the cytotoxicity at 70.5 h was -5.23%.

Consider `COCCn1ccc(NC(=O)Nc2ccc(C)cc2)n1`, for which the cytotoxicity at 70.5 h was -5.81%.

For `COc1cccc(S(=O)(=O)NC(=O)c2c(C)noc2C(C)C)c1`, the cytotoxicity at 70.5 h was -3.75%.

On to `CCc1nccn1C1CCCN(C(=O)c2cc[nH]n2)C1` (centres undefined), for which the cytotoxicity at 70.5 h is -1.71%.

Consider `CCc1nccn1C1CCCN(C(=O)c2cnc[nH]2)C1` (centres undefined), for which the cytotoxicity at 70.5 h is -3.68%.

For the molecule `CCc1nccn1C1CCCN(C(=O)c2cc(C3CC3)on2)C1` (centres undefined), the cytotoxicity at 70.5 h is -6.97%.
